Holding throughout (assay type): functional
The subject of test [1] is Sporothrix. The test can be described thus: Antifungal activity against Sporothrix brasiliensis after 72 hrs by microdilution method. On the technique in general: Broth dilution looks for growth in wells or tubes with falling amounts of substance.
Test [2] relates to Sporothrix schenckii. Nature of the test: Antifungal activity against Sporothrix schenckii after 72 hrs by microdilution method.
The test system of test [3] is Sporothrix globosa. The test can be described thus: Antifungal activity against Sporothrix globosa after 72 hrs by microdilution method.
For test [4], the system named is Sporothrix. Nature of the test: Antifungal activity against Sporothrix mexicana after 72 hrs by microdilution method.
For test [5], the system named is Sporothrix albicans. The test can be described thus: Antifungal activity against Sporothrix albicans after 72 hrs by microdilution method.

12 compounds from ChEMBL document CHEMBL1153558, “In vitro antifungal susceptibilities of five species of sporothrix” (2008) can be followed below.

By MIC50 is commonly meant an inhibitory concentration at the 50% level, which refers to growth in some studies and to a panel of isolates in others. Read a low MIC50 as higher susceptibility. Usually MIC90 stands for the lowest concentration that inhibits either 90% of growth or 90% of the strains tested, depending on the study. A higher MIC90 goes with weaker potency. As usually defined, the MIC is the lowest concentration found to suppress growth. Lower therefore signals a more susceptible organism.

In brackets after ≈: the same amount, converted by molar mass. Numbered stars: 1 amine (or outer) side, 2 acyl side, 3 side chain; on linkers, the order of the positions; unused ones are H or OH. Bridge positions count the residues as written; N and C are the ends. Square brackets hold non-standard residues; d marks the D form. Peptide text beside a SMILES is read from it. * marks the point of attachment. hTyr(3S-OH,4S-OH,3'-OSO3H) = N[C@H](C(=O)O)[C@H](O)[C@@H](O)c1ccc(O)c(OS(=O)(=O)O)c1; Orn(4R-OH,5R-OH) = O=C([C@H](C[C@@H](O)[C@@H](O)N[*:3])N[*:1])[*:2]; Pro(3S-OH,4S-Me) = C[C@H]1CN[C@H](C(=O)O)[C@H]1O; X1 = CCCCCOc1ccc(-c2cc(-c3ccc(C(=O)*)cc3)no2)cc1; Gln(3R-OH) = NC(=O)C[C@@H](O)[C@H](N)C(=O)O; Hyp = O=C(O)[C@@H]1C[C@@H](O)CN1

As to `C[C@@H](n1cnc2cc(Cl)ccc2c1=O)[C@](O)(Cn1cncn1)c1ccc(F)cc1F` [ALBACONAZOLE], the MIC50 in test [1] was determined as 1 µg/mL (≈ 2.32 µM); in test [2] it was 16 µg/mL (≈ 37.1 µM); in test [3], 16 µg/mL (≈ 37.1 µM); in test [5] it was 16 µg/mL (≈ 37.1 µM). For the same compound, the MIC90 in test [1] turned out to be 4 µg/mL (≈ 9.26 µM); in test [2], 32 µg/mL (≈ 74.1 µM); in test [3], 16 µg/mL (≈ 37.1 µM); in test [5], 32 µg/mL (≈ 74.1 µM). In test [4], this compound gave a minimum inhibitory concentration (MIC) of 32 µg/mL (≈ 74.1 µM).
Turning to `C[C@@H]1[C@H](O)[C@@H](C)/C=C/C=C/C=C/C=C/C=C/C=C/C=C/[C@H](O[C@@H]2O[C@H](C)[C@@H](O)[C@H](N)[C@@H]2O)C[C@@H]2O[C@](O)(C[C@@H](O)C[C@@H](O)[C@H](O)CC[C@@H](O)C[C@@H](O)CC(=O)O[C@H]1C)C[C@H](O)[C@H]2C(=O)O` [AMPHOTERICIN B], the MIC50 in test [1] worked out at 2 µg/mL (≈ 2.16 µM); in test [2], 4 µg/mL (≈ 4.33 µM); in test [3], 4 µg/mL (≈ 4.33 µM); in test [5], 4 µg/mL (≈ 4.33 µM). Besides, the MIC90 in test [1] came to 4 µg/mL (≈ 4.33 µM); in test [2], 4 µg/mL (≈ 4.33 µM); in test [3], 8 µg/mL (≈ 8.66 µM); in test [5], 8 µg/mL (≈ 8.66 µM). Also, the MIC in test [4] came to 16 µg/mL (≈ 17.3 µM).
With `Clc1cc(Cl)c2c(c1)CCc1ccccc1C2n1ccnc1` (stereo not given) [EBERCONAZOLE], the MIC50 is 0.25 µg/mL (≈ 0.759 µM) in test [1], 2 µg/mL (≈ 6.07 µM) in test [2], 2 µg/mL (≈ 6.07 µM) in test [3] and 8 µg/mL (≈ 24.3 µM) in test [5]. Moreover, the MIC90 in test [1] came out at 1 µg/mL (≈ 3.04 µM); in test [2], 8 µg/mL (≈ 24.3 µM); in test [3], 4 µg/mL (≈ 12.1 µM); in test [5], 16 µg/mL (≈ 48.6 µM). In test [4], this compound had an MIC of 32 µg/mL (≈ 97.2 µM).
`OC(Cn1cncn1)(Cn1cncn1)c1ccc(F)cc1F` [FLUCONAZOLE]: the MIC in test [1], in test [2], in test [3], in test [4] and in test [5] was 128 µg/mL (≈ 418 µM) throughout. Besides, the MIC50 in test [1], in test [2], in test [3] and in test [5] was 128 µg/mL (≈ 418 µM) in each case. The MIC90 in test [1], in test [2], in test [3] and in test [5] was 128 µg/mL (≈ 418 µM) each time.
For the compound `Nc1nc(=O)[nH]cc1F` [FLUCYTOSINE], the MIC50 in test [1] was 16 µg/mL (≈ 124 µM); in test [2], 16 µg/mL (≈ 124 µM); in test [3] it was 64 µg/mL (≈ 496 µM); in test [5], 128 µg/mL (≈ 992 µM). Moreover, the MIC90 in test [1], in test [2], in test [3] and in test [5] was 128 µg/mL (≈ 992 µM) in each case. In addition, the minimum inhibitory concentration (MIC) in test [4] and in test [5] was 128 µg/mL (≈ 992 µM) throughout.
For the compound `CCC(C)n1ncn(-c2ccc(N3CCN(c4ccc(OCC5COC(Cn6cncn6)(c6ccc(Cl)cc6Cl)O5)cc4)CC3)cc2)c1=O` (stereo not given) [ITRACONAZOLE], the MIC in test [1] was 0.5 µg/mL (≈ 0.709 µM); in test [4], 32 µg/mL (≈ 45.3 µM); in test [5], 32 µg/mL (≈ 45.3 µM). Also, the MIC50 in test [1] was determined as 0.5 µg/mL (≈ 0.709 µM); in test [2], 4 µg/mL (≈ 5.67 µM); in test [3] it was 32 µg/mL (≈ 45.3 µM); in test [5], 32 µg/mL (≈ 45.3 µM). The MIC90 in test [1] came out at 1 µg/mL (≈ 1.42 µM); in test [2], 32 µg/mL (≈ 45.3 µM); in test [3], 32 µg/mL (≈ 45.3 µM); in test [5] it was 32 µg/mL (≈ 45.3 µM).
Regarding `CC(=O)N1CCN(c2ccc(OCC3COC(Cn4ccnc4)(c4ccc(Cl)cc4Cl)O3)cc2)CC1` (stereo not given) [KETOCONAZOLE], the MIC50 in test [1] worked out at 0.125 µg/mL (≈ 0.235 µM); in test [2], 1 µg/mL (≈ 1.88 µM); in test [3], 1 µg/mL (≈ 1.88 µM); in test [5], 4 µg/mL (≈ 7.53 µM). Moreover, the MIC90 in test [1] is 0.25 µg/mL (≈ 0.47 µM); in test [2], 2 µg/mL (≈ 3.76 µM); in test [3] it was 2 µg/mL (≈ 3.76 µM); in test [5] it was 4 µg/mL (≈ 7.53 µM). Besides, the MIC in test [4] is 4 µg/mL (≈ 7.53 µM).
Consider `CCCCCOc1ccc(-c2cc(-c3ccc(C(=O)N[C@H]4C[C@@H](O)[C@@H](O)NC(=O)[C@@H]5[C@@H](O)[C@@H](C)CN5C(=O)[C@H]([C@H](O)CC(N)=O)NC(=O)[C@H]([C@H](O)[C@@H](O)c5ccc(O)c(OS(=O)(=O)O)c5)NC(=O)[C@@H]5C[C@@H](O)CN5C(=O)[C@H]([C@@H](C)O)NC4=O)cc3)no2)cc1` [MICAFUNGIN] (X1-[Orn(4R-OH,5R-OH)]T[Hyp][hTyr(3S-OH,4S-OH,3'-OSO3H)][Gln(3R-OH)][Pro(3S-OH,4S-Me)]; lactam 1-C), for which the MIC in test [1], in test [2], in test [3], in test [4] and in test [5] was 256 µg/mL (≈ 202 µM) in each case. Besides, the MIC50 in test [1], in test [2], in test [3] and in test [5] was 256 µg/mL (≈ 202 µM) in each case. Besides, the MIC90 in test [1], in test [2], in test [3] and in test [5] was 256 µg/mL (≈ 202 µM) in each case.
`CC[C@@H]([C@H](C)O)n1ncn(-c2ccc(N3CCN(c4ccc(OC[C@@H]5CO[C@@](Cn6cncn6)(c6ccc(F)cc6F)C5)cc4)CC3)cc2)c1=O` [POSACONAZOLE]: the MIC50 in test [1] was determined as 0.5 µg/mL (≈ 0.713 µM); in test [2] it was 1 µg/mL (≈ 1.43 µM); in test [3], 2 µg/mL (≈ 2.85 µM); in test [5], 2 µg/mL (≈ 2.85 µM). The MIC90 in test [1] was determined as 1 µg/mL (≈ 1.43 µM); in test [2] it was 8 µg/mL (≈ 11.4 µM); in test [3], 8 µg/mL (≈ 11.4 µM); in test [5], 2 µg/mL (≈ 2.85 µM). Further, in test [4], the minimum inhibitory concentration (MIC) stood at 32 µg/mL (≈ 45.7 µM).
`C[C@@H](c1nc(-c2ccc(C#N)cc2)cs1)[C@](O)(Cn1cncn1)c1ccc(F)cc1F` [RAVUCONAZOLE]: the MIC50 in test [1] was found to be 0.5 µg/mL (≈ 1.14 µM); in test [2] it was 8 µg/mL (≈ 18.3 µM); in test [3], 8 µg/mL (≈ 18.3 µM); in test [5], 16 µg/mL (≈ 36.6 µM). Besides, the MIC90 in test [1] was 1 µg/mL (≈ 2.29 µM); in test [2], 16 µg/mL (≈ 36.6 µM); in test [3], 16 µg/mL (≈ 36.6 µM); in test [5], 32 µg/mL (≈ 73.1 µM). Also, in test [4], inhibition of growth (MIC) required 32 µg/mL (≈ 73.1 µM).
`CN(C/C=C/C#CC(C)(C)C)Cc1cccc2ccccc12` [TERBINAFINE]: the MIC in test [1] is 0.06 µg/mL (≈ 0.206 µM); in test [4], 0.5 µg/mL (≈ 1.72 µM). In addition, the MIC50 in test [1] amounted to 0.06 µg/mL (≈ 0.206 µM); in test [2] it was 0.25 µg/mL (≈ 0.858 µM); in test [3] it was 0.25 µg/mL (≈ 0.858 µM); in test [5] it was 0.5 µg/mL (≈ 1.72 µM). In addition, the MIC90 came to 0.25 µg/mL (≈ 0.858 µM) in test [1], 0.5 µg/mL (≈ 1.72 µM) in test [2], 0.5 µg/mL (≈ 1.72 µM) in test [3] and 4 µg/mL (≈ 13.7 µM) in test [5].
As for `C[C@@H](c1ncncc1F)[C@](O)(Cn1cncn1)c1ccc(F)cc1F` [VORICONAZOLE], the MIC50 in test [1] turned out to be 4 µg/mL (≈ 11.5 µM); in test [2], 32 µg/mL (≈ 91.6 µM); in test [3], 32 µg/mL (≈ 91.6 µM); in test [5] it was 8 µg/mL (≈ 22.9 µM). The MIC90 turned out to be 8 µg/mL (≈ 22.9 µM) in test [1], 32 µg/mL (≈ 91.6 µM) in test [2], 32 µg/mL (≈ 91.6 µM) in test [3] and 32 µg/mL (≈ 91.6 µM) in test [5]. The same compound returned an MIC in test [4] of 16 µg/mL (≈ 45.8 µM).
